Earlier results, collected in patent publication US11827664B2, “Biaryl amides with modified sugar groups for treatment of diseases associated with heat shock protein pathway” (REATA PHARMACEUTICALS, INC., priority 2018, dated 2023).
pIC50: −log10 of the molar value.

What was measured:
diabetic mice = conditions: cited from earlier work
neurons [1] = conditions: in vitro; cited from earlier work
neurons [2] = conditions: cited from earlier work
[3] = biological target: Hsp90 C-terminus nucleotide binding pocket; conditions: low affinity; Marcu, et al., 2000; cited from earlier work

Row | SMILES | effect on symptoms of DPN / neuropathy in diabetic mice (diabetic mice) | protection of neurons from hyperglycemic conditions (neurons [1]) | effect on expression of inflammatory markers (neurons [2]; diabetic neurons) | effect on mitochondrial function / bioenergetics (neurons [2]; neurons) | pIC50 [3]
1 | CO[C@@H]1[C@@H](O)[C@@H](O)C(Oc2ccc(CCNC(C)=O)c(-c3cccc(F)c3)c2)OC1(C)C (stereo partly drawn) [KU-596, N-(2-(5-(((3R,4S,5R)-3,4-dihydroxy-5-methoxy-6,6-dimethyltetra-hydro-2H-pyran-2-yl)oxy)-3′-fluoro-[1,1′-biphenyl]-2-yl)ethyl)-acetamide] | alleviate symptoms of neuropathy in diabetic mice | protect neurons from hyperglycemic conditions in vitro | reduce the expression of inflammatory markers in diabetic neurons | improve impaired mitochondrial function in neurons | –
2 | CO[C@@H]1[C@@H](OC(N)=O)[C@@H](O)[C@H](Oc2ccc3c(O)c(NC(=O)c4ccc(O)c(CC=C(C)C)c4)c(=O)oc3c2C)OC1(C)C [novobiocin] | – | – | – | – | ~3.15
